Experimental data from patent US20100210649A1, “PYRIDAZINONES AND FURAN-CONTAINING COMPOUNDS” (Sloan-Kettering Institute for Cancer Research, priority 2006, published 2010).
Where two headings read alike, the source gives them in different places.

Legend:
H1650 = experiment: Non Small Cell Lung Cancer proliferation assay (Alamar Blue reduction), H1650; type: cell-based, human; conditions: Homo sapiens, NCI-H1650, dose response 10 M to 5 nM; IC50; read-out: Dose Response (uM) H1650
In short: (§1)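 Human NSCLC cells were seeded at 250 cells/well with compound at a final 1% DMSO and treated for 48 hours at 37° C. 1% DMSO served as the high control.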

H1975 = experiment: Non Small Cell Lung Cancer proliferation assay (Alamar Blue reduction), H1975; type: cell-based, human; conditions: Homo sapiens, NCI-H1975, dose response 10 M to 5 nM; IC50; read-out: Dose Response (uM) H1975
In short: as §1

H2030 = experiment: Non Small Cell Lung Cancer proliferation assay (Alamar Blue reduction), H2030; type: cell-based, human; conditions: Homo sapiens, NCI-H2030, dose response 10 M to 5 nM; IC50; read-out: Dose Response (uM) H2030
In short: as §1

H3255 = experiment: Non Small Cell Lung Cancer proliferation assay (Alamar Blue reduction), H3255; type: cell-based, human; conditions: Homo sapiens, NCI-H3255, dose response 10 M to 5 nM; IC50; read-out: Dose Response (uM) H3255
In short: as §1

H358 = experiment: Non Small Cell Lung Cancer proliferation assay (Alamar Blue reduction), H358; type: cell-based; conditions: Homo sapiens, read-out: Dose Response (uM) H358
Procedure: (§2) These cells have a doubling time of 1-2 days. All cell types are adherent and grow in colonies. The cells should be kept at a density between 50,000 cells/mL -500,000 cells/mL to provide for optimum growth and adequate nutrition. The cell line should be maintained at 37° C. in a humidified atmosphere with 5% CO2 in a sterile cell culture incubator.
(§3) Non Small Cell Lung Cancer Proliferation Assay.
(§4) High Controls for this assay are made by treating Non Small Cell Lung Cancer cells with 5 ul of 10% DMSO. [Final concentration in this assay is 1% DMSO].
(§5) Important Note: All compounds for testing in this assay should be done at the final concentration of 1% DMSO.
(§6) After addition, the cells are placed in cell culture incubator at 37° C. for 48 hours for complete treatment.
(§7) After drug treatment, cytotoxicity is measured by Alamar Blue reduction.
(§8) The cells are incubated for 48 hours at 37° C. to complete the Alamar Blue reduction.
(§9) The final step in the assay is to measure the amount of Alamar Blue reduction. […] The Alamar Blue fluorescence is measured at an excitation of 530 nm and emission of 590 nm.
(§10) For the NSCLC project, the cell based assay was screened against a small molecule library of approximately 200,000 compounds. The compound library is stored in our automated robotic freezer (Biophile) at −20° C. in 100% DMSO. Compound freeze and thaw cycles are kept to a minimum. […] This assay was performed on a fully automated linear track robotic platform (CRS F3 Robot System, Thermo Electron Corp., Ontario, Canada) utilizing several integrated peripherals for plate handling, liquid dispensing, and readout detection. […] The microplates are then placed at 37° C. for 48 hours to complete treatment of cells with compounds. Next, 5 ul of alamar blue was added using a liquid dispenser (Flexprop Precision Dispenser, Perkin Elmer, Mass., USA) and incubated for 48 hours at 37° C. The alamar blue prompt fluorescence was measured on Victor V (Victor^3 V, Perkin Elmer, Mass., USA) and output data files were loaded into ORIS (Oncology Research Informatics System, MSKCC, NY, USA), a screening data acquisition and analysis platform.
(§11) The dose response studies were done with the following standard procedure. First, the cells were counted and dispensed at 250 cells/well into 384-well microplates with compound. The cells were incubated for 48 hours at 37 C to complete treatment, and then alamar blue was added for an additional 48 hours. Finally, alamar blue reduction was measured and the data was loaded into ORIS, our data screening acquisition platform.

H827 = experiment: Non Small Cell Lung Cancer proliferation assay (Alamar Blue reduction), H827; type: cell-based; conditions: Homo sapiens; read-out: Dose Response (uM) H827
Procedure: as §2, with “[…] are grown and maintained in Corning 175 cm2 flasks in RPMI 1640 media supplemented with 10% FBS, 1% antibiotic solution, 1% additional glutamine and pyruvate. These” for “These”
(§12) Non Small Cell Lung Cancer Proliferation Assay. To perform the assay, the Non Small Cell Lung Cancer lines are diluted in media and plated into 384 well microplates at a final density of 250 cells in […]. To ensure consistency and minimal pipetting error, the cells are plated using the Multidrop 384 with the following settings: Rocker Switch set at 384, Volume 45 and Column 24.
(§13) Low Controls for this assay are made by treating Non Small Cell Lung Cancer cells with 5 ul of staurosporine at 250 uM in 10% DMSO and 1% SDS. [Final concentration in this assay is 25 uM staurosporine in 1% DMSO and 0.1% SDS.]
as §4
(§14) The remaining wells of the 384 microplate may be treated with different compounds depending on the study. Important Note: All compounds for testing in this assay should be done at the final concentration of 1% DMSO.
as §6
(§15) After drug treatment, cytotoxicity is measured by Alamar Blue reduction. 5 μL of Alamar Blue is added to the 384 microplates using the Flexdrop.
as §8, §9
(§16) For the NSCLC project, the cell based assay was screened against a small molecule library of approximately 200,000 compounds. The compound library is stored in our automated robotic freezer (Biophile) at −20° C. in 100% DMSO. Compound freeze and thaw cycles are kept to a minimum. Compounds for use are diluted into the appropriate concentration and plated into 384 well microplates using our custom built low volume 384-well head tool (TPS 384, Apricot Designs Inc., CA, USA). This assay was performed on a fully automated linear track robotic platform (CRS F3 Robot System, Thermo Electron Corp., Ontario, Canada) utilizing several integrated peripherals for plate handling, liquid dispensing, and readout detection. First, non-small cell lung cancer cell lines are dispensed into 384 well microplates (Corning #3712 Tissue Culture Treated Plate, Corning, N.Y., USA) with 5 μL of test compounds at 100 uM in 10% DMSO for screening studies or […] in 10% DMSO to 50 nM in 10% DMSO for dose response studies. The microplates are then placed at 37° C. for 48 hours to complete treatment of cells with compounds. Next, 5 ul of alamar blue was added using a liquid dispenser (Flexprop Precision Dispenser, Perkin Elmer, Mass., USA) and incubated for 48 hours at 37° C. The alamar blue prompt fluorescence was measured on Victor V (Victor^3 V, Perkin Elmer, Mass., USA) and output data files were loaded into ORIS (Oncology Research Informatics System, MSKCC, NY, USA), a screening data acquisition and analysis platform.

H1118 = experiment: Non Small Cell Lung Cancer proliferation assay (Alamar Blue reduction), H1118; type: cell-based; conditions: Homo sapiens; read-out: Dose Response (uM) H1118
Procedure: as §12, §13, §4, §14, §6, §15, §8, §9, §16, §11

H1734 = experiment: Non Small Cell Lung Cancer proliferation assay (Alamar Blue reduction), H1734; type: cell-based, human; conditions: Homo sapiens, read-out: Dose Response (uM) H1734
Procedure: as §2, §3, §4, §5, §6, §7, §8, §9, §10, §11

in vitro = conditions: human
Procedure: NHBE (normal human bronchiolar epithelial cells) are primary cells obtained from donor lungs and commercially available from Cambrex. The HPL1D (human peripheral lung epithelial) cell line has been immortalized with the SV40 large T-antigen. WI-38: human lung fibroblast cell line. HPLID, NHBE and WI-38 cells will serve as controls in the chemical screens. WT: wildtype; WT*: over-expressed wildtype.
Compounds were tested in dose response studies from […] to 5 nM against several non small cell lung cancer lines: H358, H827, H1118, H1650, H1734, H1975, H2030, and H3255, and were also studied in a 72 hour cytotoxicity assay against the NHBE and WI-38 cell lines.

Compound | IC50 (H1650) | IC50 (H1975) | IC50 (H2030) | IC50 (H3255) | IC50 (H358; NCI-H358) | IC50 (H827) | IC50 (H1118) | IC50 (H1734; NCI-H1734) | IC50 at 72 h (in vitro; CytoTox (uM) NHBE) | IC50 at 72 h (in vitro; CytoTox (uM) WI-38) | IC50 (H358; NCI-H358, dose response 10 M to 5 nM, IC50) | IC50 (H1734; NCI-H1734, dose response 10 M to 5 nM, IC50)
O=c1c(Br)c(SCc2ccccc2)cnn1-c1ccccc1 [compound 257021] | > 10 µM | > 10 µM | > 10 µM | > 10 µM | > 10 µM | > 10 µM | > 10 µM | > 10 µM | > 10 µM | > 10 µM | – | –
O=c1c(Cl)c(SCc2ccccc2)cnn1-c1ccccc1 [compound 257022] | > 10 µM | > 10 µM | > 10 µM | > 10 µM | > 10 µM | > 10 µM | > 10 µM | > 10 µM | > 10 µM | > 10 µM | – | –
N/N=C1\C=NN(c2ccccc2)C(=O)C1Cl (stereo not shown) [compound 257023] | > 10 µM | > 10 µM | > 10 µM | > 10 µM | > 10 µM | > 10 µM | > 10 µM | > 10 µM | > 10 µM | > 10 µM | – | –
CN/N=C1\C=NN(c2ccc(C)cc2)C(=O)C1Cl (stereo not shown) [compound 257025] | > 10 µM | > 10 µM | > 10 µM | > 10 µM | > 10 µM | > 10 µM | > 10 µM | > 10 µM | > 10 µM | > 10 µM | – | –
COc1ccc(=O)n(-c2cccc(C)c2)n1 [compound 257029] | > 10 µM | > 10 µM | > 10 µM | > 10 µM | > 10 µM | – | – | > 10 µM | > 10 µM | > 10 µM | – | –
O=c1c(Cl)c(Cl)cnn1-c1c(Cl)cc(C(F)(F)F)cc1Cl [compound 267059] | > 10 µM | > 10 µM | > 10 µM | > 10 µM | > 10 µM | – | – | > 10 µM | > 10 µM | > 10 µM | – | –
CCN(CC)c1cnn(-c2cccc(C)c2)c(=O)c1Cl [compound 267074] | > 10 µM | > 10 µM | > 10 µM | > 10 µM | > 10 µM | – | – | > 10 µM | > 10 µM | > 10 µM | – | –
CCOc1cnn(-c2cccc(C)c2)c(=O)c1Cl [compound 267075] | > 10 µM | > 10 µM | > 10 µM | > 10 µM | – | – | – | – | > 10 µM | > 10 µM | > 10 µM | > 10 µM
CCN(CC)c1c(Cl)cnn(-c2cccc(C)c2)c1=O [compound 267076] | > 10 µM | > 10 µM | > 10 µM | > 10 µM | > 10 µM | – | – | > 10 µM | > 10 µM | > 10 µM | – | –
Cc1cccc(-n2ncc(N=[N+]=[N-])c(Cl)c2=O)c1 [compound 267082] | > 10 µM | > 10 µM | > 10 µM | > 10 µM | > 10 µM | – | – | > 10 µM | > 10 µM | > 10 µM | – | –
Cc1cccc(-n2ncc(I)cc2=O)c1 [compound 267086] | > 10 µM | 6.76 µM | > 10 µM | > 10 µM | > 10 µM | – | – | > 10 µM | > 10 µM | > 10 µM | – | –
Cc1cccc(-n2nc(OCCCNC(=O)CCC(=O)O)c(Cl)c(Cl)c2=O)c1 [compound 273632] | > 10 µM | > 10 µM | > 10 µM | > 10 µM | > 10 µM | – | – | > 10 µM | > 10 µM | > 10 µM | – | –
O=C(O)CCC(=O)NCCCOc1cccc(-n2ncc(Br)c(Br)c2=O)c1 [compound 273633] | > 10 µM | > 10 µM | > 10 µM | > 10 µM | > 10 µM | – | – | > 10 µM | > 10 µM | > 10 µM | – | –
